Our source for the Ki values is ChEMBL document CHEMBL2311248, “Discovery of potent myeloid cell leukemia 1 (Mcl-1) inhibitors using fragment-based methods and structure-based design” (J Med Chem, 2013).

Usually Ki stands for a dissociation constant, usually derived from enzyme kinetics or from competition with a known ligand. The low end stands for higher affinity, the high end for lower affinity.

Chain of Induced myeloid leukemia cell differentiation protein Mcl-1 (Q07820 whole entry): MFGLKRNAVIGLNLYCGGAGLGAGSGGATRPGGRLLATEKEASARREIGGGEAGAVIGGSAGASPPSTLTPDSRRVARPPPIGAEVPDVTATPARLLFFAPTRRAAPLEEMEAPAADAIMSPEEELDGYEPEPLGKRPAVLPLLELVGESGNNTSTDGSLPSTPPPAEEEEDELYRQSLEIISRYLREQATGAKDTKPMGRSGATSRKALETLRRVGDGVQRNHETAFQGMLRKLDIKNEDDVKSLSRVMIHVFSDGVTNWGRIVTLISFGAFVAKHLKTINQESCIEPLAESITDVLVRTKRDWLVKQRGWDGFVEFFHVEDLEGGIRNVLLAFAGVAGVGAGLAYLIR
Chain of Bcl-2-like protein 1 (Q07817 whole entry): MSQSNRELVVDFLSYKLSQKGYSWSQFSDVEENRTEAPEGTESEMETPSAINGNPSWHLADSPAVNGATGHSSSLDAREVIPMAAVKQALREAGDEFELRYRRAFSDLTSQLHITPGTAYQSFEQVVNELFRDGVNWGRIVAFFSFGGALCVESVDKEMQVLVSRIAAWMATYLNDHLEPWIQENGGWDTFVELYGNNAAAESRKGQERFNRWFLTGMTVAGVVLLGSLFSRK
Chain of Apoptosis regulator Bcl-2 (P10415 whole entry): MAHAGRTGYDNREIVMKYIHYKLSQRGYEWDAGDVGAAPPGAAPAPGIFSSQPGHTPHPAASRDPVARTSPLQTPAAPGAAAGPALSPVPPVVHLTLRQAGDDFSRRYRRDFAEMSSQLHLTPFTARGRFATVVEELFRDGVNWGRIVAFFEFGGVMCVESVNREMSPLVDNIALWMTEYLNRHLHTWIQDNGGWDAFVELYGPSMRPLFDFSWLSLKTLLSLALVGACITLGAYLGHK

One test addresses Bcl-2-like protein 1 (Homo sapiens, UniProt Q07817).
The compound `Cn1c(C(=O)O)c(CCCOc2cccc3ccccc23)c2ccccc21` yielded a Ki of over 15 µM.

On to `O=C(O)c1sc2cccc(Cl)c2c1Cl`, for which the Ki was over 1000 µM. The same measure, in the same setting: to `Cc1c(C(=O)O)oc2c(C)cccc12` belongs over 1000 µM; to `Cc1cc(OCC(=O)O)ccc1Cl`, over 1000 µM; to `O=C(O)c1[nH]c2cc(Cl)ccc2c1CCCOc1cccc2ccccc12`, 6.8 µM.

For `Cc1cccc2c(-c3ccccc3)c(C(=O)O)[nH]c12`, the Ki is over 1000 µM.

`O=C(O)c1c(CCCOc2cccc3ccccc23)c2ccccc2n1Cc1ccccc1` yielded an inhibitory constant (Ki) of over 15 µM. Consider `Cc1cc(OCCCc2c(C(=O)O)[nH]c3ccccc23)ccc1Cl`, for which the inhibition constant Ki is over 15 µM. With `Cc1cc(OCCCc2c(C(=O)O)sc3cc(Cl)ccc23)cc(C)c1Cl`, the inhibition constant (Ki) was found to be 4.1 µM. `Cc1cc(OCCCc2c(C(=O)O)[nH]c3cc(Cl)ccc23)ccc1Cl`: the Ki was over 15 µM. `Cc1ccc2c(Cl)c(C(=O)O)sc2c1` yielded an inhibition constant Ki of 230 µM. Same read-out and setting: the figure for `Cc1cc(OCCC(=O)O)cc(C)c1Cl` is over 1000 µM; for `c1ccc2c(CSc3ncn[nH]3)cccc2c1` it is over 1000 µM. As for `Cc1cc(OCCCc2c(C(=O)O)[nH]c3ccccc23)cc(C)c1Cl`, the inhibitory constant (Ki) was over 15 µM. `Cc1cc(OCCCc2c(C(=O)O)n(C)c3ccccc23)cc(C)c1Cl` came in with an inhibitory constant (Ki) of over 15 µM.

A further test addresses Apoptosis regulator Bcl-2 (Homo sapiens, UniProt P10415).
For `Cn1c(C(=O)O)c(CCCOc2cccc3ccccc23)c2ccccc21`, the Ki is over 15 µM. With `O=C(O)c1sc2cccc(Cl)c2c1Cl`, the inhibition constant (Ki) was over 1000 µM. Turning to `Cc1c(C(=O)O)oc2c(C)cccc12`, the Ki was over 1000 µM.

Consider `Cc1cc(OCC(=O)O)ccc1Cl`, for which the inhibitory constant (Ki) was over 1000 µM.

The compound `O=C(O)c1[nH]c2cc(Cl)ccc2c1CCCOc1cccc2ccccc12` returned a Ki of 0.96 µM. `Cc1cccc2c(-c3ccccc3)c(C(=O)O)[nH]c12` registered a Ki of over 1000 µM.

On to `O=C(O)c1oc2ccccc2c1CCCOc1cccc2ccccc12`, for which the Ki worked out at 4.3 µM. For `O=C(O)c1c(CCCOc2cccc3ccccc23)c2ccccc2n1Cc1ccccc1`, the Ki was over 15 µM.

As to `Cc1cc(OCCCc2c(C(=O)O)[nH]c3ccccc23)ccc1Cl`, the inhibitory constant (Ki) is 9.1 µM. Compound `Cc1cc(OCCCc2c(C(=O)O)sc3cc(Cl)ccc23)cc(C)c1Cl` yielded an inhibitory constant (Ki) of 0.8 µM. This Ki is about 11-fold lower than that of the compound before. `Cc1cc(OCCCc2c(C(=O)O)[nH]c3cc(Cl)ccc23)ccc1Cl` came in with a Ki of 1.4 µM. Still for that read-out and setting: the figure for `Cc1ccc2c(Cl)c(C(=O)O)sc2c1` is over 1000 µM; for `Cc1cc(OCCC(=O)O)cc(C)c1Cl` it is over 1000 µM. On to `c1ccc2c(CSc3ncn[nH]3)cccc2c1`, for which the Ki is over 1000 µM. Regarding `Cc1cc(OCCCc2c(C(=O)O)[nH]c3ccccc23)cc(C)c1Cl`, the Ki worked out at 5.3 µM. This lies in the single-digit micromolar range.

On to `Cc1cc(OCCCc2c(C(=O)O)n(C)c3ccccc23)cc(C)c1Cl`, for which affinity was put at a Ki of 7.4 µM.

In turn, `O=C(O)c1sc2cc(Cl)ccc2c1CCCOc1cccc2ccccc12` had an inhibition constant Ki of 0.96 µM.

Another test has as its target Induced myeloid leukemia cell differentiation protein Mcl-1 (Homo sapiens, UniProt Q07820).
Turning to `O=C(O)c1sc2ccccc2c1CCc1cccc2ccccc12`, affinity was put at a Ki of 12.5 µM. Turning to `Cc1cc(OCCCn2c(C(=O)O)cc3ccccc32)ccc1Cl`, the inhibition constant (Ki) turned out to be 1.2 µM. This Ki is about 10-fold lower than that of the compound before. Compound `NC(=O)c1cc2ccccc2n1CCCOc1cccc2ccccc12` showed an inhibitory constant (Ki) of over 500 µM. Still for that read-out and setting: the figure for `Cc1cc(OCC(=O)O)ccc1Cl` is 103 µM; for `O=C(O)c1cc2ccccc2[nH]1` [INDOLE-2-CARBOXYLIC ACID] it is over 1000 µM; for `O=C(O)c1[nH]c2cc(Cl)ccc2c1CCCOc1cccc2c1CCCC2` it is 0.066 µM. As for `O=C(O)c1oc2ccccc2c1CCc1cccc2ccccc12`, the Ki came to 9.5 µM. For `O=C(O)c1sc2ccccc2c1CCCc1cccc2ccccc12`, the Ki is 9.6 µM. The same measure, in the same setting: to `Cc1cc(OCCCn2c(C(=O)O)cc3ccccc32)cc(C)c1Cl` belongs 0.41 µM.

For `O=C(O)c1c(CCCOc2cccc3ccccc23)c2ccccc2n1Cc1ccccc1`, the Ki turned out to be 0.29 µM. On the same count and under the same terms, to `O=C(O)c1cc2ccccc2o1` belongs over 1000 µM.

As for `Cc1cc(OCCC(=O)O)cc(C)c1Cl`, the Ki came out at 60 µM. `O=C(O)c1cc2ccccc2n1CCCOc1cccc2ccccc12` registered a Ki of 0.47 µM. `c1ccc2c(CSc3ncn[nH]3)cccc2c1` yielded a Ki of 86 µM. As to `O=C(O)c1oc2ccccc2c1CCCc1cccc2ccccc12`, the Ki stood at 14.6 µM.
